Source: DBAASP
Values after ≈ are worked out from the molar mass of the structure shown. Values belong to the compound of their own block, whether it stands above or below them.

What was measured:
Assay in all cases: ≥ marks a high value that may be exact or a test limit, other limits are often not marked, values filed in µg/mL are converted to µM
[1] = tested on: Klebsiella pneumoniae NCTC 13368
[2] = tested on: Staphylococcus aureus ATCC 9144
[3] = tested on: Escherichia coli ATCC 700928
[4] = tested on: Bacillus subtilis ATCC 13933
[5] = tested on: Acinetobacter baumannii ATCC 17978
[6] = tested on: Staphylococcus aureus USA 300
[7] = tested on: Pseudomonas aeruginosa PAO1
[8] = tested on: Candida albicans ATCC 90028
[9] = tested on: Escherichia coli NCTC 12923
[10] = tested on: Erwinia amylovora PMV 6076
[11] = tested on: Pseudomonas syringae pv. syringae EPS 94
[12] = tested on: Xanthomonas campestris pv. Vesicatoria 2133-2
[13] = tested on: Escherichia coli KCTC 1682
[14] = tested on: Enterococcus faecalis KCTC 2011
[15] = tested on: Pseudomonas aeruginosa CCARM 2002
[16] = tested on: Pseudomonas aeruginosa KCTC 1637
[17] = tested on: Bacillus subtilis KCTC 3068
[18] = tested on: Acinetobacter baumannii CCARM 12005
[19] = tested on: Salmonella typhimurium CCARM 8007
[20] = tested on: Salmonella typhimurium KCTC 1926
[21] = tested on: Staphylococcus aureus CCARM 3089
[22] = tested on: Staphylococcus aureus CCARM 3126
[23] = tested on: Salmonella typhimurium CCARM 8009
[24] = tested on: Escherichia coli CCARM 1229
[25] = tested on: Staphylococcus aureus CCARM 3108
[26] = tested on: Escherichia coli CCARM 1238
[27] = tested on: Acinetobacter baumannii CCARM 12036
[28] = tested on: Acinetobacter baumannii CCARM 12035
[29] = tested on: Pseudomonas aeruginosa CCARM 2163
[30] = tested on: Staphylococcus aureus KCTC 1621
[31] = tested on: Pseudomonas aeruginosa CCARM 2095
[32] = tested on: Acinetobacter baumannii CCARM 12037
[33] = tested on: Salmonella typhimurium CCARM 8003
[34] = tested on: Escherichia coli ATCC 25922
Penicillium roqueforti = tested on: Penicillium roqueforti
[35] = tested on: Vibrio anguillarum FT1801
[36] = tested on: Candida albicans ATCC 10231
Botrytis cinerea 101 = tested on: Botrytis cinerea 101
Saccharomyces cerevisiae = tested on: Saccharomyces cerevisiae
[37] = tested on: Corynebacterium glutamicum ATCC 13032
[38] = tested on: Staphylococcus epidermidis KCTC 1917
[39] = tested on: Saccharomyces cerevisiae KCTC 7296
[40] = tested on: Candida albicans KCTC 7270
[41] = tested on: Trichosporon beigelii KCTC 7707
[42] = tested on: Bacillus subtilis KCTC 1918
[43] = tested on: Staphylococcus aureus K35
[44] = tested on: Staphylococcus aureus K52
[45] = tested on: Staphylococcus aureus ATCC 25923
Enterococcus faecium = tested on: Enterococcus faecium
[46] = tested on: Enterococcus faecalis ATCC 29212

Compound: CC[C@H](C)[C@H](NC(=O)CNC(=O)[C@@H](N)CCCCN)C(=O)N[C@@H](CCCN=C(N)N)C(=O)NCC(=O)N[C@@H](Cc1ccc(O)cc1)C(=O)N[C@@H](CCCCN)C(=O)NCC(=O)NCC(=O)N[C@@H](Cc1ccc(O)cc1)C(=O)N[C@@H](CCCCN)C(=O)NCC(=O)N[C@@H](C)C(=O)N[C@@H](Cc1ccccc1)C(=O)N[C@@H](CCCCN)C(=O)N[C@@H](CCC(N)=O)C(=O)N[C@H](C(=O)N[C@@H](CCCCN)C(=O)N[C@@H](Cc1ccc(O)cc1)C(=O)O)[C@@H](C)O [KGIRGYKGGYKGAFKQTKY]
MIC [1]: ≥ 59.5 µM
MIC [2]: ≥ 59.5 µM
MIC [3]: ≥ 55.8 µM
MIC [4]: ≥ 55.8 µM
MIC [5]: ≥ 59.5 µM
MIC [6]: ≥ 59.5 µM
MIC [7]: > 59.5 µM
MIC [8]: 2.2 µM (≈ 4.73 µg/mL)
MIC [9]: ≥ 59.5 µM

Compound: CC[C@H](C)[C@H](NC(=O)[C@H](CCCCN)NC(=O)[C@H](CCCCN)NC(=O)[C@H](Cc1ccccc1)NC(=O)[C@H](CC(C)C)NC(=O)[C@H](CCCCN)NC(=O)[C@@H](N)CCCCN)C(=O)N[C@@H](CC(C)C)C(=O)N[C@@H](CCCCN)C(=O)N[C@@H](Cc1ccc(O)cc1)C(=O)N[C@@H](CC(C)C)C(=O)N[C@@H](CCCCN)C(=O)N[C@@H](CC(=O)O)C(=O)N[C@@H](CCC(=O)O)C(=O)N[C@@H](CC(C)C)C(=O)O [KKLFKKILKYLKDEL]
MIC [10]: 3.54 µM (≈ 6.74 µg/mL)
MIC [11]: 3.54 µM (≈ 6.74 µg/mL)
MIC [12]: 1.77 µM (≈ 3.37 µg/mL)

Compound: CC(C)C[C@H](NC(=O)[C@H](C)NC(=O)[C@H](Cc1cnc[nH]1)NC(=O)[C@H](C)NC(=O)[C@H](C)NC(=O)[C@H](C)NC(=O)[C@H](CS)NC(=O)[C@H](C)NC(=O)CNC(=O)[C@H](CCCN=C(N)N)NC(=O)[C@H](CC(C)C)NC(=O)[C@@H](N)CC(=O)O)C(=O)O [DLRGACAAAHAL]
MIC [34]: > 100 µM
MIC (Penicillium roqueforti): ≥ 100 µM
MIC [35]: ≥ 100 µM
MIC [2]: ≥ 100 µM
MIC [36]: > 100 µM
MIC (Botrytis cinerea 101): ≥ 100 µM
MIC (Saccharomyces cerevisiae): ≥ 100 µM
MIC [37]: ≥ 100 µM

Compound: CC(C)C[C@H](NC(=O)[C@H](C)NC(=O)CNC(=O)[C@H](CO)NC(=O)[C@H](CC(C)C)NC(=O)[C@@H](NC(=O)[C@H](CCCN=C(N)N)NC(=O)CNC(=O)[C@H](C)NC(=O)[C@H](CC(C)C)NC(=O)[C@@H]1CCCN1C(=O)[C@H](CC(C)C)NC(=O)[C@@H](N)Cc1ccccc1)C(C)C)C(N)=O [FLPLAGRVLSGAL]
MIC [43]: ≥ 99.8 µM
MIC [44]: ≥ 99.8 µM
MIC [45]: > 168 µM
MIC (Enterococcus faecium): ≥ 99.8 µM
MIC [46]: > 168 µM

Next, values leading:

MIC [13]: 2 µM (≈ 4.6 µg/mL)
MIC [14]: 16 µM (≈ 36.8 µg/mL)
MIC [15]: 2 µM (≈ 4.6 µg/mL)
MIC [16]: 4 µM (≈ 9.21 µg/mL)
MIC [17]: 4 µM (≈ 9.21 µg/mL)
MIC [18]: 2 µM (≈ 4.6 µg/mL)
MIC [19]: 2 µM (≈ 4.6 µg/mL)
MIC [20]: 2 µM (≈ 4.6 µg/mL)
MIC [21]: 8 µM (≈ 18.4 µg/mL)
MIC [22]: 8 µM (≈ 18.4 µg/mL)
MIC [23]: 2 µM (≈ 4.6 µg/mL)
MIC [24]: 4 µM (≈ 9.21 µg/mL)
MIC [25]: 4 µM (≈ 9.21 µg/mL)
MIC [26]: 2 µM (≈ 4.6 µg/mL)
MIC [27]: 2 µM (≈ 4.6 µg/mL)
MIC [28]: 2 µM (≈ 4.6 µg/mL)
MIC [29]: 2 µM (≈ 4.6 µg/mL)
MIC [30]: 4 µM (≈ 9.21 µg/mL)
MIC [31]: 2 µM (≈ 4.6 µg/mL)
MIC [32]: 2 µM (≈ 4.6 µg/mL)
MIC [33]: 4 µM (≈ 9.21 µg/mL)
Compound: CC[C@H](C)[C@H](NC(=O)[C@H](CCCCN)NC(=O)[C@H](Cc1c[nH]c2ccccc12)NC(=O)[C@@H](N)CCCN=C(N)N)C(=O)N[C@@H](Cc1ccccc1)C(=O)N[C@@H](CCCCN)C(=O)N[C@@H](CCCCN)C(=O)N[C@H](C(=O)N1CCC[C@H]1C(=O)N[C@@H](CCCCN)C(=O)N[C@@H](Cc1ccccc1)C(=O)N[C@@H](CC(C)C)C(=O)N[C@@H](Cc1cnc[nH]1)C(=O)N[C@@H](CO)C(=O)N[C@@H](C)C(=O)N[C@@H](CCCCN)C(=O)N[C@@H](CCCCN)C(=O)N[C@@H](Cc1ccccc1)C(N)=O)[C@@H](C)CC [RWKIFKKIPKFLHSAKKF]

MIC [13]: 3.12 µM (≈ 5.38 µg/mL)
MIC [16]: 1.56 µM (≈ 2.69 µg/mL)
MIC [38]: 3.12 µM (≈ 5.38 µg/mL)
MIC [39]: 6.25 µM (≈ 10.8 µg/mL)
MIC [40]: 17.7 µM (≈ 30.4 µg/mL)
MIC [20]: 0.78 µM (≈ 1.34 µg/mL)
MIC [41]: 1.56 µM (≈ 2.69 µg/mL)
MIC [30]: 1.56 µM (≈ 2.69 µg/mL)
MIC [42]: 1.56 µM (≈ 2.69 µg/mL)
Compound: CC[C@H](C)[C@H](NC(=O)[C@H](CCCCN)NC(=O)[C@H](CO)NC(=O)[C@H](Cc1ccccc1)NC(=O)[C@H](CC(C)C)NC(=O)[C@H](CCCCN)NC(=O)[C@H](CCC(=O)O)NC(=O)[C@H](CC(C)C)NC(=O)[C@H](CCCN=C(N)N)NC(=O)[C@H](CCCCN)NC(=O)[C@H](Cc1ccccc1)NC(=O)[C@H](Cc1c[nH]c2ccccc12)NC(=O)[C@@H](N)CCCCN)C(N)=O [KWFKRLEKLFSKI]
